Test results taken from patent US4719302A (priority 1987, dated 1988).
In brackets after ≈: the same amount, converted by molar mass. Like-named read-outs stand apart in the source and are kept apart here.

How the values were obtained:
Format in all cases: cell-based
[1] = test system: Blastomyces dermatitidis Yeast Phase ATCC 28839; test: antifungal activity, disc agar assay (Minimum Inhibitory Concentration), Blastomyces dermatitidis yeast phase; details: read-out: Minimum Inhibitory Concentration
Experimental: (§1) The compounds of the invention are tested to determine their antifungal activity. The assay procedure is as follows:
(§2) The compounds to be tested are solubilized or suspended in appropriate reagent and further diluted in sterile distilled water to provide a range of concentrations from 200 to 10 μg/ml. 20 Lambda portions are placed on sterile dried 1/4 inch paper discs and allowed to dry for 20-30 minutes. Agar plates with a 10 ml base layer are seeded with the fungi in a 4 ml seed layer and allowed to solidify. The impregnated discs are then placed on the seeded agar surface and incubated for the time required for the particular culture.
(§3) The representative fungi are:
Blastomyces dermatitidis
(§4) All are human pathogens; the first four cause serious systemic mycotic infections as well as local. The trychophyton culture is mainly a dermatophyte.

[2] = test system: Trichophyton mentagrophytes ATCC 9533; test: antifungal activity, disc agar assay (Minimum Inhibitory Concentration), Trichophyton mentagrophytes
Experimental: as §1, §2, §3
Trichophyton mentagrophytes
as §4

[3] = test system: Candida albicans ATCC 10231; test: antifungal activity, disc agar assay (Minimum Inhibitory Concentration), Candida albicans
Experimental: as §1, §2, §3
Candida albicans ATCC 10231
as §4

[4] = test system: Histoplasma capsulatum Yeast Phase ATCC 11407; test: microbe, parasite or virus in culture; details: read-out: Minimum Inhibitory Concentration
[5] = test system: Cryptococcus neoformans ATCC 14115; test: antifungal activity, disc agar assay (Minimum Inhibitory Concentration), Cryptococcus neoformans
Experimental: as §1, §2, §3, §4

[6] = Blastomyces Dermatitidis Yeast Phase ATCC 28839
[7] = ATCC9533, Trichophyton Mentagrophytes ATCC 9533, read-out: Minimum Inhibitory Concentration
[8] = ATCC10231, Candida Albicans ATCC 10231, read-out: Minimum Inhibitory Concentration
[9] = ATCC14115, Cryptococcus Neoformans ATCC 14115, read-out: Minimum Inhibitory Concentration

Structure (SMILES)	MIC [1, 6]	MIC [2, 7]	MIC [3, 8]	MIC [4]	MIC [5, 9]	MIC [1]	MIC ([2]; Trichophyton mentagrophytes, ATCC9533, read-out: Minimum Inhibitory Concentration)	MIC ([3]; Candida albicans, ATCC10231, read-out: Minimum Inhibitory Concentration)	MIC ([5]; Cryptococcus neoformans, ATCC14115, read-out: Minimum Inhibitory Concentration)
CCOC(=O)c1c[nH]c2c(F)cc3c(=O)c(C(=O)O)cn(CC)c3c2c1=O [Example 1, 1-Ethyl-6-fluoro-1,4,7,10-tetrahydro-4,10-dioxo-1,7-phenanthroline-3,9-dicarboxylic acid 9-ethyl ester]	32 µg/mL (≈ 85.5 µM)	64 µg/mL (≈ 171 µM)	32 µg/mL (≈ 85.5 µM)	32 µg/mL (≈ 85.5 µM)	64 µg/mL (≈ 171 µM)	–	–	–	–
CCOC(=O)c1cn(CC)c2c(cc(F)c3c2c(=O)c(C(=O)OCC)cn3CC)c1=O [Example 2, 1,7-Diethyl-6-fluoro-1,4,7,10-tetrahydro-4,10-dioxo-1,7-phenanthroline-3,9-dicarboxylic acid diethyl ester]	64 µg/mL (≈ 149 µM)	> 64 µg/mL	> 64 µg/mL	64 µg/mL (≈ 149 µM)	> 64 µg/mL	–	–	–	–
CCn1cc(C(=O)O)c(=O)c2c1c(F)cc1c(=O)c(C(=O)O)cn(CC)c12 [Example 3, 1,7-Diethyl-6-fluoro-1,4,7,10-tetrahydro-4,10-dioxo-1,7-phenanthroline-3,9-dicarboxylic acid]	64 µg/mL (≈ 171 µM)	> 64 µg/mL	> 64 µg/mL	64 µg/mL (≈ 171 µM)	> 64 µg/mL	–	–	–	–
CCOC(=O)c1c[nH]c2c(cc(F)c3c2c(=O)ccn3CC)c1=O [Example 4, 7-Ethyl-6-fluoro-1,4,7,10-tetrahydro-4,10-dioxo-1,7-phenanthroline-3-carboxylic acid ethyl ester]	–	–	–	> 256 µg/mL	–	> 256 µg/mL	> 256 µg/mL	> 256 µg/mL	> 256 µg/mL
CCOC(=O)c1c[nH]c2c(cc(F)c3c2c(=O)c(C(=O)O)cn3CC)c1=O [Example 5, 7-Ethyl-6-fluoro-1,4,7,10-tetrahydro-4,10-dioxo-1,7-phenanthroline-3,9-dicarboxylic acid 3-ethyl ester]	> 256 µg/mL	> 256 µg/mL	> 256 µg/mL	> 256 µg/mL	> 256 µg/mL	–	–	–	–
CCOC(=O)c1c[nH]c2c(cc(F)c3c2c(=O)c(C(=O)OCC)cn3CC)c1=O [Example 6, 7-Ethyl-6-fluoro-1,4,7,10-tetrahydro-4,10-dioxo-1,7-phenanthroline-3,9-dicarboxylic acid diethyl ester]	64 µg/mL (≈ 159 µM)	> 64 µg/mL	> 64 µg/mL	64 µg/mL (≈ 159 µM)	> 64 µg/mL	–	–	–	–
